Measurements from US20180339976A1, “NOVEL TRIAZOLE DERIVATIVES” (priority 2015, published 2018).

Assay: Log P by HPLC on reversed phase columns (EEC directive 79/831 Annex V.A8)
Type: physicochemical
Conditions: not given
Experimental: Measurement of Log P values was performed according to EEC directive 79/831 Annex V.A8 by HPLC (High Performance Liquid Chromatography) on reversed phase columns with the following methods: • ^[a]
If more than one Log P value is available within the same method, all the values are given and separated by “+”.
Lambda-max-values were determined using UV-spectra from 200 nm to 400 nm and the peak values of the chromatographic signals.

LogP | chromatographic logP | Structure (SMILES)
2.27^[a] | – | OC(Cc1ccncc1F)(Cn1cncn1)c1ccc(Oc2ccc(F)cc2F)cc1 (centres unmarked) [Example I-20]
2.23^[a] | – | OC(Cc1ccnc(Cl)c1F)(Cn1cncn1)c1ccc(Cl)cc1 (centres unmarked) [Example I-10]
– | 2.15 | OC(Cc1cccnc1Cl)(Cn1cncn1)c1ccc(Cl)cc1F (centres unmarked) [Example I-29, 2-(4-chloro-2-fluoro-phenyl)-1-(2-chloro-3-pyridyl)-3-(1,2,4-triazol-1-yl)propan-2-ol]
2.43^[a] | – | OC(Cc1cc(F)ncc1Cl)(Cn1cncn1)c1ccc(Cl)cc1 (centres unmarked) [Example I-28]
1.61^[a] | – | OC(Cc1cccnc1Cl)(Cn1cncn1)c1ccccc1 (centres unmarked) [Example I-51]
1.60^[a] | – | OC(Cc1ccnc(Cl)c1)(Cn1cncn1)c1ccccc1 (centres unmarked) [Example I-37]
1.69^[a] | – | OC(Cc1ccnc(Cl)c1)(Cn1cncn1)c1ccc(F)cc1 (centres unmarked) [Example I-05]
1.86^[a] | – | OC(Cc1ccncc1Cl)(Cn1cncn1)c1ccc(Cl)cc1 (centres unmarked) [Example I-11]
1.54^[a] | – | OC(Cc1ccncc1F)(Cn1cncn1)c1ccc(Cl)cc1 (centres unmarked) [Example I-31]
2.65^[a] | – | CC(C)(C)c1noc(-c2ccc(C(O)(Cc3ccncc3Cl)Cn3cncn3)cc2)n1 (centres unmarked) [Example I-38]
1.76^[a] | – | OC(Cc1ccncc1Cl)(Cn1cncn1)c1ccc(F)cc1F (centres unmarked) [Example I-30]
1.86^[a] | – | OC(Cc1ccnc(Cl)c1)(Cn1cncn1)c1ccc(F)cc1F (centres unmarked) [Example I-44]
1.99^[a] | – | OC(Cc1cccnc1Cl)(Cn1cncn1)c1ccc(Cl)cc1 (centres unmarked) [Example I-52]
2.47^[a] | – | COC(Cc1ccnc(Cl)c1F)(Cn1cncn1)c1ccc(F)cc1F (centres unmarked) [Example I-57]
1.96^[a] | – | OC(Cc1cc(Cl)ncc1F)(Cn1cncn1)c1ccc(F)cc1 (centres unmarked) [Example I-32]
2.22^[a] | – | OC(Cc1cccnc1Cl)(Cn1cncn1)c1ccc(C(F)(F)F)cc1 (centres unmarked) [Example I-16]
1.96^[a] | – | OC(Cc1ccnc(Cl)c1)(Cn1cncn1)c1ccc(Cl)cc1 (centres unmarked) [Example I-47]
1.97^[a] | – | OC(Cc1cccnc1Cl)(Cn1cncn1)c1cccc(Cl)c1 (centres unmarked) [Example I-17]
3.02^[a] | – | OC(Cc1cc(F)ncc1Cl)(Cn1cncn1)c1ccc(Oc2ccccc2)cc1 (centres unmarked) [Example I-34]
1.47^[a] | – | N#Cc1ccc(C(O)(Cc2cccnc2Cl)Cn2cncn2)cc1 (centres unmarked) [Example I-35]
1.84^[a] | – | OC(Cc1ccnc(Cl)c1F)(Cn1cncn1)c1ccccc1 (centres unmarked) [Example I-49]
1.13^[a] | – | OC(Cc1ccncc1F)(Cn1cncn1)c1ccccc1 (centres unmarked) [Example I-36]
1.86^[a] | – | OC(Cc1cc(Cl)ncc1F)(Cn1cncn1)c1ccccc1 (centres unmarked) [Example I-48]
2.27^[a] | – | OC(Cc1ccnc(Cl)c1F)(Cn1cncn1)c1ccccc1Cl (centres unmarked) [Example I-07]
2.69^[a] | – | OC(Cc1ccnc(Cl)c1F)(Cn1cncn1)c1ccc(Cl)cc1Cl (centres unmarked) [Example I-09]
2.69^[a] | – | OC(Cc1ccnc(Cl)c1)(Cn1cncn1)c1ccc(Oc2ccc(F)cc2F)cc1 (centres unmarked) [Example I-25]
– | 3.31 | Fc1cc(Cl)ccc1C1(Cc2cccnc2Cl)CO1 (centres unmarked) [XII-1, 2-chloro-3-[[2-(4-chloro-2-fluoro-phenyl)oxiran-2-yl]methyl]pyridine]
2.27^[a] | – | OC(Cc1cc(Cl)ncc1F)(Cn1cncn1)c1ccc(Cl)cc1 (centres unmarked) [Example I-40]

Structure (SMILES) | LogP | chromatographic logP
OC(Cc1ccncc1F)(Cn1cncn1)c1ccc(Oc2ccccc2)cc1 (centres unmarked) [Example I-03] | 2.13^[a] | –
OC(Cc1ccncc1Cl)(Cn1cncn1)c1ccc(Oc2ccc(F)cc2F)cc1 (centres unmarked) [Example I-19] | 2.57^[a] | –
OC(Cc1cc(F)ncc1Cl)(Cn1cncn1)c1ccc(F)cc1F (centres unmarked) [Example I-41] | 2.35^[a] | –
OC(Cc1ccncc1Cl)(Cn1cncn1)c1ccc(Cl)cc1Cl (centres unmarked) [Example I-42] | 2.38^[a] | –
OC(Cc1ccnc(Cl)c1F)(Cn1cncn1)c1ccc(F)cc1F (centres unmarked) [Example I-08, 1-(2-chloro-3-fluoro-4-pyridyl)-2-(2,4-difluorophenyl)-3-(1,2,4-triazol-1-yl)propan-2-ol] | – | 2.14
OC(Cc1ccnc(Cl)c1F)(Cn1cncn1)c1ccc(Oc2ccccc2)cc1 (centres unmarked) [Example I-46] | 2.84^[a] | –
OC(Cc1ccnc(Cl)c1F)(Cn1cncn1)c1ccc(F)cc1F (single isomer, unassigned) [Example I-55] | 2.21^[a] | –
OC(Cc1ccncc1Cl)(Cn1cncn1)c1ccc(F)cc1 (centres unmarked) [Example I-18] | 1.57^[a] | –
OC(Cc1ccncc1F)(Cn1cncn1)c1ccc(Cl)cc1Cl (centres unmarked) [Example I-53] | 2.00^[a] | –
OC(Cc1cc(F)ncc1Cl)(Cn1cncn1)c1ccccc1 (centres unmarked) [Example I-14] | 2.02^[a] | –

Same assay, conditions: Table 1, formula (I); method [a]: LC-UV, acidic range, 0.1% formic acid in water and acetonitrile

Structure (SMILES) | LogP
OC(Cc1cc(F)ncc1Cl)(Cn1cncn1)c1ccc(-c2ccccc2)cc1 (centres unmarked) [Example I-27] | 3.02^[a]
OC(Cc1ccnc(Cl)c1)(Cn1cncn1)c1ccc(-c2ccccc2)cc1 (centres unmarked) [Example I-39] | 2.57^[a]
OC(Cc1cc(Cl)ncc1F)(Cn1cncn1)c1ccc(-c2ccccc2)cc1 (centres unmarked) [Example I-26] | 2.88^[a]

Same assay, conditions: Table 2, epoxides of formula (XII); method [a]: LC-UV, acidic range, 0.1% formic acid in water and acetonitrile

Structure (SMILES) | LogP
Fc1ccc(C2(Cc3c(Cl)cncc3Cl)CO2)cc1 (racemic) [XII-56] | 3.58^[a]
Clc1cc(CC2(c3ccc(Oc4ccccc4)cc3)CO2)ccn1 (centres unmarked) [XII-9] | 3.37^[a]
Fc1cnc(Cl)cc1CC1(c2ccc(Cl)cc2Cl)CO1 (centres unmarked) [XII-19] | 4.17^[a]
Fc1cc(CC2(c3ccc(Oc4ccccc4)cc3)CO2)c(Cl)cn1 (racemic) [XII-40] | 4.57^[a]
Fc1ccc(C2(Cc3cc(Cl)ncc3F)CO2)cc1 (centres unmarked) [XII-16] | 3.15^[a]
Fc1cnc(Cl)cc1CC1(c2ccc(Cl)cc2)CO1 (centres unmarked) [XII-17] | 3.56^[a]
Fc1cc(CC2(c3ccc(Cl)cc3)CO2)c(Cl)cn1 (racemic) [XII-37] | 3.85^[a]
Clc1ccc(C2(Cc3ccnc(Cl)c3)CO2)cc1 (centres unmarked) [XII-15] | 3.19^[a]
Fc1ccc(C2(Cc3ccnc(Cl)c3)CO2)cc1 (centres unmarked) [XII-14] | 2.76^[a]
Fc1ccc(Oc2ccc(C3(Cc4cc(Cl)ncc4F)CO3)cc2)c(F)c1 (centres unmarked) [XII-21] | 4.17^[a]
Fc1ccc(Oc2ccc(C3(Cc4ccnc(Cl)c4F)CO3)cc2)c(F)c1 (racemic) [XII-44] | 4.20^[a]
Fc1cc(CC2(c3ccc(Cl)cc3Cl)CO2)c(Cl)cn1 (racemic) [XII-36] | 4.45^[a]
Clc1ccc(C2(Cc3ccnc(Cl)c3)CO2)c(Cl)c1 (centres unmarked) [XII-10] | 3.85^[a]
Clc1cnccc1CC1(c2ccc(-c3ccccc3)cc2)CO1 (centres unmarked) [XII-28] | 3.85^[a]
Clc1ccc(C2(Cc3cccnc3Cl)CO2)cc1 (centres unmarked) [XII-24] | 3.25^[a]
Fc1c(CC2(c3ccc(Cl)cc3Cl)CO2)ccnc1Cl (racemic) [XII-46] | 3.02^[a]
Fc1ccc(C2(Cc3cc(F)ncc3Cl)CO2)c(F)c1 (racemic) [XII-35] | 3.46^[a]
Clc1ccc(C2(Cc3ccncc3Cl)CO2)c(Cl)c1 (centres unmarked) [XII-31] | 3.06^[a]
Clc1ccccc1C1(Cc2c(Cl)cncc2Cl)CO1 (racemic) [XII-59] | 4.04^[a]
Clc1ccc(C2(Cc3c(Cl)cncc3Cl)CO2)c(Cl)c1 (racemic) [XII-54] | 4.76^[a]
Fc1cnc(Cl)cc1CC1(c2ccc(-c3ccccc3)cc2)CO1 (centres unmarked) [XII-22] | 4.28^[a]
Fc1ccc(C2(Cc3ccncc3Cl)CO2)c(F)c1 (centres unmarked) [XII-34] | 2.76^[a]
Fc1cnccc1CC1(c2ccc(Cl)cc2Cl)CO1 (centres unmarked) [XII-3] | 3.19^[a]

Structure (SMILES) | LogP
Fc1ccc(Oc2ccc(C3(Cc4ccncc4F)CO3)cc2)c(F)c1 (centres unmarked) [XII-5] | 3.37^[a]
Clc1ccc(C2(Cc3ccncc3Cl)CO2)cc1 (centres unmarked) [XII-30] | 3.15^[a]
CC(C)(C)c1noc(-c2ccc(C3(Cc4ccncc4Cl)CO3)cc2)n1 (centres unmarked) [XII-65] | 4.25^[a]
Fc1c(CC2(c3ccc(-c4ccccc4)cc3)CO2)ccnc1Cl (racemic) [XII-45] | 4.25^[a]
Fc1ccc(C2(Cc3cc(F)ncc3Cl)CO2)cc1 (racemic) [XII-39] | 3.37^[a]
Clc1cnccc1CC1(c2ccccc2Cl)CO1 (centres unmarked) [XII-29] | 3.02^[a]
Fc1cnc(Cl)cc1CC1(c2ccc(Oc3ccccc3)cc2)CO1 (centres unmarked) [XII-18] | 4.23^[a]
Fc1ccc(C2(Cc3c(Cl)cncc3Cl)CO2)c(F)c1 (racemic) [XII-55] | 3.68^[a]
Cc1cc(C)c(C2(Cc3ccncc3Cl)CO2)c(C)c1 (racemic) [XII-60] | 4.15^[a]
Fc1cccc(F)c1C1(Cc2ccncc2Cl)CO1 (centres unmarked) [XII-66] | 2.50^[a]
Fc1cc(CC2(c3ccc(-c4ccccc4)cc3)CO2)c(Cl)cn1 (racemic) [XII-42] | 4.64^[a]
Fc1c(CC2(c3ccc(Oc4ccccc4)cc3)CO2)ccnc1Cl (racemic) [XII-48] | 4.20^[a]
Clc1cc(CC2(c3ccc(-c4ccccc4)cc3)CO2)ccn1 (centres unmarked) [XII-13] | 3.89^[a]
Fc1ccc(Oc2ccc(C3(Cc4ccnc(Cl)c4)CO3)cc2)c(F)c1 (centres unmarked) [XII-12] | 3.85^[a]
Clc1cnccc1CC1(c2cccc(Cl)c2Cl)CO1 (racemic) [XII-61] | 3.53^[a]
Fc1ccc(Oc2ccc(C3(Cc4c(Cl)cncc4Cl)CO3)cc2)c(F)c1 (racemic) [XII-52] | 4.70^[a]
Fc1cnccc1CC1(c2ccc(Cl)cc2)CO1 (centres unmarked) [XII-2] | 2.65^[a]
Fc1c(CC2(c3ccccc3Cl)CO2)ccnc1Cl (racemic) [XII-49] | 3.47^[a]
Fc1cnccc1CC1(c2ccc(-c3ccccc3)cc2)CO1 (centres unmarked) [XII-8] | 3.37^[a]
Fc1ccc(C2(Cc3ccncc3F)CO2)cc1 (centres unmarked) [XII-4] | 2.23^[a]
Fc1ccc(C2(Cc3ccnc(Cl)c3F)CO2)cc1 (racemic) [XII-50] | 3.11^[a]
Clc1ccccc1COc1cccc(C2(Cc3ccncc3Cl)CO2)c1 (racemic) [XII-63] | 4.30^[a]
